Test [1] deals with T1, pUL50-HA + pUL53-Flag (Human cytomegalovirus, UniProt P16791).
T1 construct: expressed in transfected cells; host or cells: 293T
Nature of the test: Coimmunoprecipitation (CoIP) of pUL50-HA and pUL53-Flag from cotransfected 293T cells. Format: binding, HCMV. Particulars: serial concentrations, mostly at 20–40 µM; added 24 h p.t. or after cell lysis. The protocol: For CoIP analysis, 293T cells were seeded in 10 cm dishes with a density of 5 × 10^6 cells and used for transient transfection with expression plasmids. Then, 2–3 days post-transfection (d p.t.), CoIP was performed as described previously, using mAb-HA (H9658, Sigma-Aldrich, St. Louis, MO, USA). In brief, cells were lysed in 500 μL CoIP buffer (50 mM Tris/HCl (pH 8.0), 150 mM NaCl, 5 mM EDTA, 0.5% NP-40, 1 mM PMSF, 2 μg/mL aprotinin, 2 μg/mL leupeptin and 2 μg/mL pepstatin). Subsequently, total lysates were incubated with antibody-coated (2 μL of tag-specific or control antibodies) Dynabeads® Protein A (30 μL per sample; Life Technologies, Carlsbad, CA, USA) for 2 h at 4 °C under rotation. The precipitates were washed five times with 1 mL of CoIP buffer. CoIP samples and lysate controls were taken prior to the addition of the CoIP antibody. SDS-PAGE and standard Western blot analysis of cell lysates was performed using equal protein amounts as described previously. […]
In both cases, total lysates were prepared at 48 h p.t., and the CoIP analysis was performed under continued drug treatment (Figure S3). The protein applied as the basis for IP (using tag-specific mAb-HA) was pUL50-HA, and pUL53-Flag was detected as the CoIP partner. […]

Test [2] deals with T2, HSV-1 HA-UL34 + Flag-UL31 (Human herpesvirus 1, UniProt P10215+P10218).
T2 construct: expressed in transfected cells; host or cells: HeLa
As to the kind of experiment: Confocal imaging of core NEC localization in cotransfected HeLa cells, HSV-1. Format: cell-based. Particulars: 4 µM, 3 d p.t. The protocol: HFF or HFF-UL50 cells, either Dox-induced or uninduced, were seeded in 6-well plates with a density of 2 × 10^5 cells per well, grown on coverslips and infected with HCMV AD169 or AD169 ∆UL50-ΣUL53. For infection experiments with the recombinant virus, different Shield-1 and Dox conditions were analyzed. Antivirals were added post-infection as described for the experiments. For transfection experiments, HeLa cells were seeded on coverslips in 6-well plates with a density of 3.25 × 10^5 cells per well for cotransfection with the indicated NEC expression plasmids (HSV-1 HA-UL34 + Flag-UL31, HCMV pUL50-HA + pUL53-Flag and EBV HA-BFRF1 + Flag-BFLF2). At indicated time points after virus infection, or 3 days post-transfection, cells were fixed, applied for IF staining as described previously and analyzed using a TCS SP5 confocal laser-scanning microscope with Leica LAS AF software (Leica Microsystems, Wetzlar, Germany). […] The device features a Leica photomultiplier tube (PMT) and a hybrid detector (HyD). Images were further processed using Photoshop CS5 (Adobe Inc., San José, CA, USA). […] Microscopic counting was performed for quantitation of colocalization patterns of two different proteins, as achieved by counting 50 cells per biological triplicate. […]

T1 sequence (P16791 whole entry): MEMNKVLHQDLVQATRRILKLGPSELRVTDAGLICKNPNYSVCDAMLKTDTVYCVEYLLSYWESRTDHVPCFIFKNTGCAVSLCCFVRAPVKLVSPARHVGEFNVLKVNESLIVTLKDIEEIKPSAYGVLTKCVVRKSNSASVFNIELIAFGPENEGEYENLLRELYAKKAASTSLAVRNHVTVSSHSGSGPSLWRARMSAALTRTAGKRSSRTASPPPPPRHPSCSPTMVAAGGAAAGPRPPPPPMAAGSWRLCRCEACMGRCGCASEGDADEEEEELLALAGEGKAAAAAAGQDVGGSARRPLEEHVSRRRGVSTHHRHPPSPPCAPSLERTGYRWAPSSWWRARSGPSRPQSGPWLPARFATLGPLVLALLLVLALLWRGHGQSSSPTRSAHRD
T2 sequence (P10215 whole entry): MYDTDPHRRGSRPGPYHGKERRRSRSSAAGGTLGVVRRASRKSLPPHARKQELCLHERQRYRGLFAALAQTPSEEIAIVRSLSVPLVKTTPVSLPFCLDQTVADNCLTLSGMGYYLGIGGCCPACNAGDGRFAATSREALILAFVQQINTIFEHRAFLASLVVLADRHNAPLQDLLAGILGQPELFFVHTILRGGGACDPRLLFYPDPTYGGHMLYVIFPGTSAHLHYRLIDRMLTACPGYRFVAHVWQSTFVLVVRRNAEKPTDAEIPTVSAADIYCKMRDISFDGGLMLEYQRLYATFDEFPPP
T2 sequence (P10218 whole entry): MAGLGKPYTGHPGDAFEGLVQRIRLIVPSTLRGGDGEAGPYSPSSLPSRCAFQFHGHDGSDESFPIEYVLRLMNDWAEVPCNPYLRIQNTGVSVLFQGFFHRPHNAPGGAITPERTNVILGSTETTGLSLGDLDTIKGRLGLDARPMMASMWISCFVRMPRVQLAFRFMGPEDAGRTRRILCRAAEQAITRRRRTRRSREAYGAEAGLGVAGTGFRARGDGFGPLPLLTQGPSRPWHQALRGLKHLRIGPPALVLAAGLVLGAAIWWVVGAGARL

For the molecule `C=CC(=O)N1CCC[C@@H](n2nc(-c3ccc(Oc4ccccc4)cc3)c3c(N)ncnc32)C1` [ibrutinib], the “coimmunoprecipitated pUL53-Flag (in words)” value in test [1] was “trend of a reduction in coimmunoprecipitated pUL53-Flag”. In addition, the “core NEC nuclear rim localization (in words)” value in test [2] was “did not show any similar alteration in nuclear rim localization”.

The values are drawn from PMC10137179, “Assessment of Covalently Binding Warhead Compounds in the Validation of the Cytomegalovirus Nuclear Egress Complex as an Antiviral Target” (Cells, 2023).
